Measurements published in US5424442A, “Water-soluble methine compounds useful in photographic silver halide emulsion containing the same” (Fuji Photo Film Co., Ltd., priority 1990, dated 1995).
Values joined by “and” are separate entries in the source; they are usually repeats but may differ in a detail not shown here. Identical values can stand only once. Like-named read-outs stand apart in the source and are kept apart here. One block for each molecule: values may come before it.

Key:
[1] = Solubility in solvents (dissolution in incubator, filtration through microfilter, visible absorption); assay type: physicochemical; settings: for Solubility in Water / Solubility in MeOH / Solubility in H2O: 720 min
Source text: The solubility of some of the compounds within formula (I) was accurately measured.
The measurement of solubility was made in the following manner.

[2] = Spectral sensitization of photographic silver halide emulsion; design: Yellow filter sensitivity (SY) / Red filter sensitivity (SR): scale not given here; settings: for Spectral sensitization performance (in words): added to emulsion as aqueous solution or aqueous dispersion; for Maximum Sensitization: spectrogram, tungsten light source of 2666° K.; for Yellow filter sensitivity (SY): yellow filter SC-50, 5 seconds exposure; for Yellow filter sensitivity (SY) / Red filter sensitivity (SR): standard point Fog+0.2; for Red filter sensitivity (SR): red filter SC-60, 5 seconds exposure
Description: A silver halide emulsion comprising pure silver bromide and having a cubic crystal form (the area ratio of the plane to the entire surface area of grain being 92%) was prepared and subjected to a sulfur sensitization treatment. The average diameter of silver halide grains contained in the emulsion was 0.68 μm, and 0.74 mol of silver halide per kg of emulsion was contained in the emulsion. One kg of the emulsion was weighed in each of pots. An aqueous solution of each of the compounds of formula (I) indicated in Tables 4 and 5 was added to the pot, and the mixture was mixed with stirring at 40° C. For the purpose of comparison, comparative compounds 1 and 2 wherein counter ion was iodide were dispersed in water and added to respective pots.
Further, 4-hydroxy-6-methyl-1,3,3a,7-tetraazaindene in an amount of 0.1 g/kg of emulsion, sodium salt of 2,4-dichloro-6-hydroxy-1,3,5-triazine in an amount of 0.1 g/kg of emulsion and sodium dodecylbenzenesulfonate in an amount of 0.1 g/kg of emulsion in order were added thereto. The emulsion was then coated on a polyethylene terephthalate film to obtain a photographic material.
Each of these samples was exposed through an optical wedge for 5 seconds by using a yellow filter (SC-50, a product of Fuji Photo Film Co., Ltd.) or a red filter (SC-60, a product of Fuji Photo Film Co., Ltd.) and tungsten light (5400° K.).
A spectrogram was obtained by using a grating spectrograph having a tungsten light source of 2666° K., and the maximum sensitization was measured.
After exposure, the samples were developed at 20° C for 4 minutes by using the following developing solution. The density of each of the developed films was measured by using a densitometer (manufactured by Fuji Photo Film Co., Ltd. Spectral sensitivity, that is, yellow filter sensitivity (SY) or red filter sensitivity (SR), sensitivity (SB) in the sensitive region inherent in silver halide, and fog were determined. Sensitivity was determined when the standard point of optical density was referred to as (Fog+0.2). Composition of Developing Solution […]
Two volumes of water were added thereto to obtain a working solution when used.

[3] = water, Table 3, read-out: Solubility in Water
[4] = MeOH, 37° C., 12 hours, Table 1
[5] = MeOH, 37° C., 12 hours, Table 2
[6] = water, H2O, 37° C., 12 hours, Table 2, read-out: Solubility in H2O

Compound: CCn1c(=CC2=CC(=Cc3sc4cc(C)c(C)cc4[n+]3CC)CC(C)(C)C2)sc(=C2Sc3ccccc3N2C)c1=O [Comparative Compound 2, reference compound]
- Water solubility (in words) ([1]; water): low solubility in water
- Spectral sensitization performance (in words) [2]: the desired spectral sensitivity cannot be obtained
- Red filter sensitivity (SR) ([2]; Table 5): 100
- Maximum Sensitization ([2]; Table 5): 747 nm

Compound: CCN1C(=CC=c2sc(=Cc3oc4c5ccccc5ccc4[n+]3CC)n(CC)c2=O)Sc2c1ccc1ccccc21 [Compound 86]
- Maximum Sensitization ([2]; Table 4): 630 nm
- Yellow filter sensitivity (SY) ([2]; Table 4): 890

Compound: CCN1C(=CC=c2sc(=Cc3sc(-c4ccccc4)c(-c4ccccc4)[n+]3CC)n(CC)c2=O)Oc2ccccc21 [Compound 88]
- Maximum Sensitization ([2]; Table 4): 565 nm
- Yellow filter sensitivity (SY) ([2]; Table 4): 2085

Compound: CCN1C(=CC=c2sc(=Cc3sc(-c4ccccc4)c(-c4ccccc4)[n+]3CC)n(CC)c2=O)Sc2ccc3ccccc3c21 [Compound 89]
- Maximum Sensitization ([2]; Table 4): 640 nm
- Yellow filter sensitivity (SY) ([2]; Table 4): 705

Compound: CCn1c(=Cc2sc(-c3ccccc3)c(-c3ccccc3)[n+]2CC)sc(=CC=C2N(C)c3ccccc3C2(C)C)c1=O [Compound 91]
- Maximum Sensitization ([2]; Table 4): 600 nm
- Yellow filter sensitivity (SY) ([2]; Table 4): 1730

Compound: CCCn1c(=Cc2sc3ccccc3[n+]2CC)sc(=CC=C2C=Cc3ccccc3N2CC)c1=O [Compound 96]
- Red filter sensitivity (SR) ([2]; Table 5): 3600
- Maximum Sensitization ([2]; Table 5): 660 nm

Compound: CC[n+]1c(C=c2sc(=CC=C3C=CN(C)C=C3)c(=O)n2C)sc2ccccc21 [Compound 98]
- solubility at 12 h [1, 3]: 6800 µg/mL

Compound: C=CCN1C=CC(=CC=c2sc(=Cc3sc4c5ccccc5ccc4[n+]3CC)n(CC=C)c2=O)c2ccccc21 [Compound 100]
- Red filter sensitivity (SR) ([2]; Table 5): 1685
- Maximum Sensitization ([2]; Table 5): 715 nm

Compound: CCCn1c(=Cc2oc3cc(C)c(C)cc3[n+]2CC)sc(=CC=C2C=CN(CC)c3ccccc32)c1=O [Compound 101]
- Red filter sensitivity (SR) ([2]; Table 5): 2270
- Maximum Sensitization ([2]; Table 5): 695 nm

Compound: CCn1c(=Cc2sc3cc(C)c(C)cc3[n+]2CC)sc(=C2Sc3ccccc3N2C)c1=O [Compound 110]
- Solubility in MeOH [1, 5]: > 10000 µg/mL
- solubility at 12 h [1, 6]: 1700 µg/mL

Compound: CCn1c(=Cc2sc3cc(C)c(C)cc3[n+]2CC)sc(=C2Sc3ccc(OC)cc3N2C)c1=O [Compound 111]
- Maximum Sensitization ([2]; Table 4): 540 nm
- Yellow filter sensitivity (SY) ([2]; Table 4): 2085

Compound: CCn1c(=Cc2oc3ccccc3[n+]2CC)sc(=C2Sc3ccccc3N2C)c1=O [Compound 128]
- Solubility in H2O ([1]; H2O, 37° C., 12 hours, Table 2): > 10000 µg/mL
- Solubility in MeOH [1, 5]: > 10000 µg/mL

Compound: CCn1c(=Cc2oc3ccc(-c4ccccc4)cc3[n+]2CC)sc(=C2Sc3ccccc3N2C)c1=O [Compound 133]
- Maximum Sensitization ([2]; Table 4): 520 nm
- Yellow filter sensitivity (SY) ([2]; Table 4): 1620

Compound: CCn1c(=CC2=[N+](CC)CCS2)sc(=C2Sc3ccccc3N2C)c1=O [Compound 142]
- Maximum Sensitization ([2]; Table 4): 495 nm
- Yellow filter sensitivity (SY) ([2]; Table 4): 300

Compound: CN1C(=c2sc(=Cc3cc[n+](C)cc3)n(C)c2=O)Sc2ccccc21 [Compound 145]
- solubility at 12 h [1, 3]: 8800 µg/mL

Compound: CCn1c(=CC2=CC(=Cc3sc4cc(C)c(C)cc4[n+]3CC)CC(C)(C)C2)sc(=C2Sc3ccccc3N2C)c1=O [Compound 151]
- Red filter sensitivity (SR) ([2]; Table 5): 1535
- Maximum Sensitization ([2]; Table 5): 750 nm

Compound: CCn1c(=C2CCC[n+]3c2sc2ccccc23)sc(=C2Sc3ccccc3N2C)c1=O [Compound 156]
- solubility at 12 h [1, 3]: 3700 µg/mL

Compound: CCn1c(=Cc2oc3ccccc3[n+]2CC)sc(=C2Sc3ccccc3N2C)c1=O [Compound D, reference compound]
- Solubility in H2O ([1]; H2O, 37° C., 12 hours, Table 2): 200 µg/mL
- Solubility in MeOH [1, 5]: 2000 µg/mL

Compound: CCn1c(=Cc2sc3cc(C)c(C)cc3[n+]2CC)sc(=C2Sc3ccccc3N2C)c1=O [drawing 127, reference compound]
- Solubility in MeOH [1, 5]: 100 µg/mL

Continued, in another order:

- Water solubility (in words) ([1]; water): low solubility in water
Compound: CCN1C(=CC=c2sc(=Cc3sc(-c4ccccc4)c(-c4ccccc4)[n+]3CC)n(CC)c2=O)Sc2ccccc21 [Comparative Compound 1, reference compound]
- Spectral sensitization performance (in words) [2]: the desired spectral sensitivity cannot be obtained
- Maximum Sensitization ([2]; Table 4): 638 nm
- Yellow filter sensitivity (SY) ([2]; Table 4): 100

- solubility at 12 h [1, 3]: 7200 µg/mL
Compound: CCN1C(=CC=c2sc(=Cc3sc4ccccc4[n+]3CC)n(CC)c2=O)Sc2ccc(Cl)cc21 [Compound 3]

- Solubility in Water ([1]; water, Table 3): 6200 µg/mL
Compound: CN1C(=CC=c2sc(=Cc3sc4ccccc4[n+]3C)n(C)c2=O)Sc2ccccc21 [Compound 7]

- Solubility in Water ([1]; water, Table 3): 3800 µg/mL
Compound: CN1C(=CC=c2sc(=Cc3sc4ccccc4[n+]3C)n(C)c2=O)Sc2ccccc21 [Compound 9]

- Solubility in Water ([1]; water, Table 3): > 10000 µg/mL
Compound: CN1C(=CC=c2sc(=Cc3sc4ccccc4[n+]3C)n(C)c2=O)Sc2ccccc21 [Compound 10]

- Solubility in MeOH ([1]; MeOH, 37° C., 12 hours): > 25 mM
- Solubility in MeOH [1, 4]: > 16000 µg/mL
- solubility at 12 h ([1]; water, H2O, 37° C., 12 hours, Table 1, read-out: Solubility in H2O): 6560 µg/mL
- solubility at 12 h ([1]; water, H2O, 37° C., 12 hours, read-out: Solubility in H2O): 10.1 mM
Compound: CCN1C(=CC=c2sc(=Cc3sc4c5ccccc5ccc4[n+]3CC)n(CC)c2=O)Sc2ccc3ccccc3c21 [Compound 25]

- Solubility in Water ([1]; water, Table 3): 5300 µg/mL
Compound: CCN1C(=CC=c2sc(=Cc3sc4c5ccccc5ccc4[n+]3C)n(CC)c2=O)Sc2ccc3ccccc3c21 [Compound 33]

- Solubility in Water ([1]; water, Table 3): 7100 µg/mL
Compound: CCN1C(=CC=c2sc(=Cc3sc4c5ccccc5ccc4[n+]3C)n(CC)c2=O)Sc2ccc3ccccc3c21 [Compound 34]

- Solubility in Water ([1]; water, Table 3): > 10000 µg/mL
Compound: CCN1C(=CC=c2sc(=Cc3sc4c5ccccc5ccc4[n+]3C)n(CC)c2=O)Sc2ccc3ccccc3c21 [Compound 35]

- Solubility in Water ([1]; water, Table 3): 4800 µg/mL
Compound: CCN1C(=CC=c2sc(=Cc3sc4c5ccccc5ccc4[n+]3C)n(CC)c2=O)Sc2ccc3ccccc3c21 [Compound 36]

- solubility at 12 h [1, 3]: > 10000 µg/mL
Compound: CCn1c(=Cc2sc3c4ccccc4ccc3[n+]2CC)sc(=CC=C2SCCN2C)c1=O [Compound 45]

- Solubility in H2O ([1]; H2O, 37° C., 12 hours): > 37 mM
- Solubility in H2O ([1]; H2O, 37° C., 12 hours, Table 1): > 19000 µg/mL
- Solubility in MeOH ([1]; MeOH, 37° C., 12 hours): > 33 mM
- Solubility in MeOH [1, 4]: > 17000 µg/mL
Compound: CCN1C(C)=CSC1=CC=c1sc(=Cc2sc3ccccc3[n+]2CC)n(CC)c1=O [Compound 53]

- solubility at 12 h [1, 3]: 4100 µg/mL
Compound: CCN1C(=CC=c2sc(=Cc3cc[n+](C)c4ccccc34)n(C)c2=O)N(CC)c2ccccc21 [Compound 104]

- solubility at 12 h [1, 3]: 5700 µg/mL
Compound: CCn1c(=Cc2sc3ccccc3[n+]2C)sc(=C2Oc3ccc4ccccc4c3N2C)c1=O [Compound 127]

- Solubility in MeOH [1, 5]: > 10000 µg/mL
- solubility at 12 h [1, 6]: 6900 µg/mL
Compound: CCn1c(=Cc2oc3c4ccccc4ccc3[n+]2CC)sc(=C2Sc3ccccc3N2C)c1=O [Compound 134]
- Maximum Sensitization ([2]; Table 4): 520 nm
- Yellow filter sensitivity (SY) ([2]; Table 4): 1350

- solubility at 12 h [1, 3]: 8100 µg/mL
Compound: CCn1c(=Cc2sc3ccccc3[n+]2CC)sc(=C2C=Cc3ccccc3N2C)c1=O [Compound 147]

- solubility at 12 h [1, 3]: 3200 µg/mL
Compound: CCn1c(=CC2=CC(=Cc3sc4ccccc4[n+]3CC)CC(C)(C)C2)sc(=C2Sc3ccccc3N2C)c1=O [Compound 148]

- solubility at 12 h [1, 3]: 1400 µg/mL
Compound: CCN1C(=CC=c2sc(=CC3=CC(=Cc4sc5cc(C)c(C)cc5[n+]4CC)Oc4ccccc43)n(CC)c2=O)Sc2ccccc21 [Compound 153]

- Solubility in H2O ([1]; H2O, 37° C., 12 hours): 0.17 mM
- Solubility in H2O ([1]; H2O, 37° C., 12 hours, Table 1): 100 µg/mL
- Solubility in MeOH ([1]; MeOH, 37° C., 12 hours): 1.11 mM
- Solubility in MeOH [1, 4]: 650 µg/mL
- solubility at 12 h ([1]; dmso, organic solvent or mixture, DMSO, 37° C., 12 hours, read-out: Solubility in DMSO): 20000 µM and 11700 µg/mL
Compound: CCN1C(C)=CSC1=CC=c1sc(=Cc2sc3ccccc3[n+]2CC)n(CC)c1=O [Compound A, reference compound]

- Solubility in MeOH ([1]; MeOH, 37° C., 12 hours): 0.03 mM
- Solubility in MeOH [1, 4]: 30 µg/mL
Compound: CCN1C(=CC=c2sc(=Cc3sc4c5ccccc5ccc4[n+]3CC)n(CC)c2=O)Sc2ccc3ccccc3c21 [Compound E, reference compound]

- Solubility in MeOH [1, 5]: 150 µg/mL
Compound: CCn1c(=Cc2oc3c4ccccc4ccc3[n+]2CC)sc(=C2Sc3ccccc3N2C)c1=O [drawing 128, reference compound]

- solubility at 12 h ([1]; methanol, organic solvent or mixture, MeOH, 37° C., 12 hours, Table 2, read-out: Solubility in MeOH): 2800 µg/mL
- solubility at 12 h [1, 6]: 300 µg/mL
Compound: CCN1C(=CC=c2sc(=Cc3cc[n+](CC)c4ccccc34)n(CC)c2=O)C=Cc2ccccc21 [reference compound]
